Assay results taken from PMC6544242, “Development and validation of a multiplex UHPLC-MS/MS method for the determination of the investigational antibiotic against multi-resistant tuberculosis macozinone (PBTZ169) and five active metabolites in human plasma” (PLoS ONE, 2019).
Read-outs that look alike come from different tables or passages of the source.

Tests used:
[1] = Long-term stability in plasma; assay type: in vitro ADME, human; conditions: -20°C and -80°C
Experimental: Long-term stability in plasma. Stability in citrated plasma stored at -20°C and -80°C in suitable tubes for long-term storage (1, 3, 6 and 12 months) was evaluated at 1, 10, 100 and 1000 ng/mL. Deviations of the mean concentrations (n = 3) of samples measured at each time points from the nominal concentrations were calculated.

[2] = system: Mycobacterium tuberculosis; conditions: cited from earlier work; for anti-TB activity in vitro (active / inactive): not measured in this paper
[3] = assay type: physicochemical; conditions: DMSO:MeOH (1:1 v/v), -20°C
Experimental: Each compound was independently weighed and the corresponding powder dissolved in the required volume of DMSO to give a 1 mg/mL stock solution of the compound that was sonicated for 5 minutes. The stock solution used for PBTZ169 was corrected for salt form of the analyte by applying the weighing factor (0.926). Due to the high purity of the PBTZ169 and the five metabolites, no additional correcting factors were applied for preparing compounds stock solutions. Stock solutions were prepared in 5 mL PP tubes and stored at -20°C. The stability of these solutions was verified over a period of 6 months (mean bias < 8%) and of 9 months (mean bias < 9%)
PBTZ169 and metabolites mixture solutions. Two distinct working solutions (WS) including PBTZ169 together with its five active metabolites were prepared: one for calibration standards and one for validation standards/quality control (QC) samples. Working solutions including all the analytes at 100 μg/mL were obtained by adding the required volumes of compounds stock solutions (50 μL) to 200 μL of a DMSO/MeOH (1:1 v/v) mixture in safe-lock 1.5 mL PP tubes. Spiking solutions for calibration, validation standards and QCs at the appropriate concentrations were prepared by applying sequential dilutions in DMSO/MeOH (1:1 v/v) mixture starting from the dedicated WS in safe-lock 1.5 mL PP tubes and thoroughly mixed. […]

[4] = for % from t0: processed extract sample, 24h
[5] = Phase Ia clinical pharmacokinetic trial, plasma levels in healthy volunteers; conditions: human
Experimental: The phase 1a clinical study assessing the safety and pharmacokinetics of PBTZ169 in healthy volunteers (NCT03423030), was performed at the Service of Clinical Pharmacology of the Lausanne University Hospital and was approved on 06.09.2017 (2017–01241) by the Ethics Committee of the Canton of Vaud (CER-VD) and on 17.11.2017 (2017DR1171) by Swissmedic. All volunteers gave their written informed consent.
The concentration measured in this plasma sample is 464 ng/mL, 147 ng/mL, 13 ng/mL, 12 ng/mL and 2 ng/mL for PBTZ169, Met 3-OH, Met 3-oxo, Met amino and Met 1-OH, respectively. […] Of note, measured plasma levels were multiplied by the factor 1.1 accounting for the blood 10:1 dilution due to citrate solution.

[6] = human
[7] = human, 6 h
[8] = 24 h
[9] = system: Mycobacterium tuberculosis; design: method as in PMID 20086151, PMID 22926573, PMID 25987624, PMID 30126954; conditions: preclinical models; cited from earlier work
[10] = system: bacteria (general anti-bacterial activity); design: method as in PMID 24500695; conditions: cited from earlier work

Nc1cc(C(F)(F)F)cc2c(=O)nc(N3CCN(CC4CCCCC4)CC3)sc12 [Met amino]
time spiked plasma samples stability has been verified [1]: 1 month
anti-TB activity in vitro (active / inactive) ([2]; listed as amino metabolite): devoid of anti-TB activity
anti-TB activity in vitro (active / inactive) [2]: inactive
time working solutions are stable [3]: ≥ 3 months

O=C(C1CCCCC1)N1CCN(c2nc(=O)c3cc(C(F)(F)F)cc([N+](=O)[O-])c3s2)CC1 [Met oxo]
% from t0 ([4]; 4°C, level H (QC 1500 ng/mL)): 4%
% from t0 ([4]; 4°C, level L (QC 2 ng/mL)): -3%
% from t0 ([4]; 4°C, level M (QC 150 ng/mL)): 5%
% from t0 ([4]; RT, level H (QC 1500 ng/mL)): 25%
% from t0 ([4]; RT, level L (QC 2 ng/mL)): 6%
% from t0 ([4]; RT, level M (QC 150 ng/mL)): 29%
detection in vivo in plasma [5]: not detected
anti-TB activity in vitro (active / inactive) [2]: active
% from t0 ([6]; 1 h, 10 ng/mL): 1%
% from t0 ([6]; 1 h, 20 ng/mL): 1%
% from t0 ([6]; 1 h, 50 ng/mL): -1%
% from t0 ([6]; 1 h, 100 ng/mL): -1%
% from t0 ([6]; 1 h, 200 ng/mL): 0%
% from t0 ([6]; 1 h, 500 ng/mL): -5%
% from t0 ([6]; 2 h, 10 ng/mL): -3%
% from t0 ([6]; 2 h, 20 ng/mL): -4%
% from t0 ([6]; 2 h, 50 ng/mL): -8%
% from t0 ([6]; 2 h, 100 ng/mL): -3%
% from t0 ([6]; 2 h, 200 ng/mL): 1%
% from t0 ([6]; 2 h, 500 ng/mL): -5%
% from t0 ([6]; 4 h, 10 ng/mL): -1%
% from t0 ([6]; 4 h, 20 ng/mL): 0%
% from t0 ([6]; 4 h, 50 ng/mL): -6%
% from t0 ([6]; 4 h, 100 ng/mL): -4%
% from t0 ([6]; 4 h, 200 ng/mL): 1%
% from t0 ([6]; 4 h, 500 ng/mL): -8%
% from freshly processed samples (n=2) ([7]; 0.5 ng/mL): -11%
% from freshly processed samples (n=2) ([7]; 1 ng/mL): -12%
% from freshly prepared samples ([7]; 2 ng/mL): -6%
% from freshly processed samples (n=2) ([7]; 2 ng/mL): -6%
% from freshly processed samples (n=2) ([7]; 50 ng/mL): -10%
% from freshly prepared samples ([7]; 150 ng/mL): -8%
% from freshly processed samples (n=2) ([7]; 500 ng/mL): -8%
% from freshly processed samples (n=2) ([7]; 1000 ng/mL): -3%
% from freshly prepared samples ([7]; 1500 ng/mL): -5%
% from freshly processed samples (n=2) ([7]; 2000 ng/mL): -3%

O=c1nc(N2CCN(CC3CCCCC3)CC2)sc2c([N+](=O)[O-])cc(C(F)(F)F)cc12 [PBTZ169, macozinone]
time stable in citrated human plasma [8]: at least 24 h
change in processed samples ([4]; after 24h at RT, medium level): -30%
% from t0 ([4]; 4°C, level H (QC 1500 ng/mL)): -15%
% from t0 ([4]; 4°C, level L (QC 2 ng/mL)): 5%
% from t0 ([4]; 4°C, level M (QC 150 ng/mL)): -7%
% from t0 ([4]; RT, level H (QC 1500 ng/mL)): -8%
% from t0 ([4]; RT, level L (QC 2 ng/mL)): -3%
% from t0 ([4]; RT, level M (QC 150 ng/mL)): 2%
minimum inhibitory concentration (MIC) ([2]; in vitro, Mycobacterium tuberculosis): below 0.0005 μg/mL
% from t0 ([6]; 1 h, 10 ng/mL): 1%
% from t0 ([6]; 1 h, 20 ng/mL): 2%
% from t0 ([6]; 1 h, 50 ng/mL): -1%
% from t0 ([6]; 1 h, 100 ng/mL): 3%
% from t0 ([6]; 1 h, 200 ng/mL): 1%
% from t0 ([6]; 1 h, 500 ng/mL): 0%
% from t0 ([6]; 2 h, 10 ng/mL): 0%
% from t0 ([6]; 2 h, 20 ng/mL): 2%
% from t0 ([6]; 2 h, 50 ng/mL): -3%
% from t0 ([6]; 2 h, 100 ng/mL): -1%
% from t0 ([6]; 2 h, 200 ng/mL): -3%
% from t0 ([6]; 2 h, 500 ng/mL): -4%
% from t0 ([6]; 4 h, 10 ng/mL): -1%
% from t0 ([6]; 4 h, 20 ng/mL): -1%
% from t0 ([6]; 4 h, 50 ng/mL): -7%
% from t0 ([6]; 4 h, 100 ng/mL): 0%
% from t0 ([6]; 4 h, 200 ng/mL): -2%
% from t0 ([6]; 4 h, 500 ng/mL): -3%
% from freshly processed samples (n=2) ([7]; 0.1 ng/mL): 19%
% from freshly processed samples (n=2) ([7]; 0.2 ng/mL): 11%
% from freshly processed samples (n=2) ([7]; 0.5 ng/mL): -12%
% from freshly processed samples (n=2) ([7]; 1 ng/mL): -4%
% from freshly prepared samples ([7]; 2 ng/mL): 5%
% from freshly processed samples (n=2) ([7]; 2 ng/mL): -3%
% from freshly processed samples (n=2) ([7]; 50 ng/mL): 7%
% from freshly prepared samples ([7]; 150 ng/mL): -3%
% from freshly processed samples (n=2) ([7]; 500 ng/mL): -4%
% from freshly processed samples (n=2) ([7]; 1000 ng/mL): -10%
% from freshly prepared samples ([7]; 1500 ng/mL): -7%
% from freshly processed samples (n=2) ([7]; 2000 ng/mL): -1%
effect in combination with clofazimine or bedaquiline [9]: synergistic effect
effect in combination with isoniazide, moxifloxacin, rifampicin [9]: additive effect
general anti-bacterial activity [10]: no general anti-bacterial activity
